Activity calls are given as the source filed them. The rule behind the calls is not given here.
Target: Protein kinase C (PKC) (Homo sapiens) (UniProt O94806+P41743+P17252+P05129+Q05655+P05771+Q05513+Q02156+P24723+Q15139+Q04759)
Experiment: Activation of PKC in human 786-0 cells at 1 uM
Assay type: cell-based

| Activity | SMILES |
| --- | --- |
| Active | CC/C(C)=C/C(=O)O[C@@H]1[C@H](C)C[C@H]2O[C@]1(O)[C@@H](O)[C@@]1(C)CC[C@H](O1)C(C)(C)/C=C/[C@H](C)C2=O |
| Active | CC(C)[C@@]12C[C@@H](OC(=O)CO)[C@@](C)(O1)[C@@H]1CC[C@@H](C)[C@H]1[C@@H]2OC(=O)/C(Cl)=C/c1ccccc1 |

— ChEMBL document CHEMBL3804761, “Synthesis of a stable and orally bioavailable englerin analogue” (Bioorg Med Chem Lett, 2016)
